Laboratory results taken from article PMC4161306, “Regulation of Arabidopsis Flowering by the Histone Mark Readers MRG1/2 via Interaction with CONSTANS to Modulate FT Expression” (PLoS Genetics, 2014).

How the values were obtained:
[1] = In vitro peptide pull-down from nuclear extracts with mass spectrometry; format: binding, Arabidopsis; conditions: biotinylated H3 peptides (amino acids 21 to 44) on streptavidin-coated beads
Description: An in vitro peptide pull-down assay was used to identify the proteins that bind to histone H3 tail methylated at K36. Biotinylated histone H3 peptides (amino acids 21 to 44), with either unmethylated (control) or tri-methylated K36, were immobilized on the streptavidin-coated beads and incubated with Arabidopsis nuclear extracts. […] Members in this group have the same domain organization, with a chromodomain (chromatin organization modifier domain) near the N-terminus, and a MRG domain near the C-terminus (Figure S1). MRG2 has a homolog in Arabidopsis, MRG1, which shares with MRG2 49% identity and 65% similarity at the amino acid sequence level.

[2] = test system: chromodomain of MRG2 (His-MRG2N); test: Dot-blot / pull-down binding assay, His-MRG2N with methylated H3 peptides; parameters: species or system Arabidopsis; conditions: Figure 1A, N-terminal His-tagged chromodomain, peptides residues 1–21 (K4, K9) or 21–44 (K27, K36)
Description: (§1) For the dot-blot binding assay, MRG1N (1–321, AT4G37280) and MRG2N (1–369, AT1G02740) cDNA were amplified by primers MRG1-1/MRG1-2 and MRG2-1/MRG2-2, respectively, and cloned into a pET-30a vector (Novagen, www.novagen.com). Site mutation was generated using a Takara MutanBEST Kit (http://www.takara-bio.com) with primers MRG2-3/MRG2-4. The in vitro binding assay of the chromodomain containing proteins with the histone peptides were performed as described previously. Methylated H3K4 (H3K4me1/2/3, residues 1–21), H3K9 (H3K9me1/2/3, residues 1–21), H3K27 (H3K27me1/2/3, residues 21–44), and H3K36 (H3K36me1/2/3, residues 21–44) peptides were synthesized by Scilight Biotechnology (http://www.scilight-peptide.com). Anti-monomethyl-H3K4 (07-436), anti-dimethyl-H3K4 (07-030), anti-trimethyl-H3K4 (07-473), anti-trimethyl-H3K9 (07-442), and anti-trimethyl-H3K27 (07-449) were purchased from Millipore (http://www.millipore.com), and anti-monomethyl-H3K36 (ab9048), anti-dimethyl-H3K36 (ab9049), and anti-trimethyl-H3K36 (ab9050) were purchased from Abcam (http://www.abcam.com).

[3] = test system: chromodomain of MRG1 (His-MRG1N); test: Dot-blot / pull-down binding assay, His-MRG1N with methylated H3 peptides; parameters: species or system Arabidopsis; conditions: Figure 1A, N-terminal His-tagged chromodomain, peptides residues 1–21 (K4, K9) or 21–44 (K27, K36)
Description: as §1

[4] = test system: Y87A substitution in MRG2 chromodomain (His-MRG2N(Y87A)); test: Dot-blot binding assay, His-MRG2N(Y87A) with methylated H3 peptides; parameters: species or system Arabidopsis; conditions: Figure 7B; Tyr87Ala mutation in MRG2
Description: as §1

[5] = test system: EAF3; conditions: ref [29]; cited from earlier work
Source text: Firstly, via their chromodomain, MRG1/2 proteins act as readers that recognize methylated H3K4 and H3K36.

| Substance | protein bound from nuclear extract [1] | binding to chromodomain of MRG2 [2] | binding to chromodomain of MRG1 [3] | association with MRG2 Y87A [4] | binding to EAF3 [5] |
| --- | --- | --- | --- | --- | --- |
| H3 peptides tri-methylated at K36: Biotinylated histone H3 peptides (amino acids 21 to 44) with tri-methylated K36 | identified MRG2 |  |  |  |  |
| H3K4me2: methylated H3K4 peptide, residues 1–21 (dot-blot) |  | could bind | could bind |  |  |
| H3K4me3: methylated H3K4 peptide, residues 1–21 (dot-blot), Scilight Biotechnology |  | could bind | could bind | disrupted its association | only very weakly |
| H3K36me2: methylated H3K36 peptide, residues 21–44 (dot-blot) |  | could bind | could bind |  |  |
| H3K36me3: methylated H3K36 peptide, residues 21–44 (dot-blot) |  | could bind | could bind | disrupted its association | bind |
| mono-methylated H3K4: methylated H3K4 peptide, residues 1–21 (dot-blot) |  |  | not |  |  |
| mono-methylated H3K36: methylated H3K36 peptide, residues 21–44 (dot-blot) |  |  | not |  |  |
